These results are taken from article PMC9187519, “In vivo visualization of fluorescence reflecting CDK4 activity in a breast cancer mouse model” (MedComm, 2022).

The subject of experiment [1] is CDK4 kinase activity in MCF‐7 cells. In words: Cell microplate fluorescence imaging with CPP30‐Lipo/CDKACT4. In kind it is cell-based, human. The settings on record: n = 3; for reduction of fluorescence intensity: probe 12 h. The protocol:
(§1) Cells (∼8 × 10^3 cells per well) were seeded in black 96‐well plates and incubated with CPP30‐Lipo/CDKACT4 for 12 h after siRNA transfection or treatment with graded concentrations of palbociclib (HY‐50767; Medchemexpress). Then, the cells were washed three times with PBS and refilled with fresh PBS. Cell fluorescence signals were immediately detected using the IVIS Lumina II imaging system (PerkinElmer).

For the next experiment, the system named is CDK4. Also noted: method as in PMID 31482107. The settings on record: for CDK4; cited from earlier work. The source says:
We next investigated whether CPP30‐Lipo/CDKACT4 could be used to monitor the inhibition by the CDK4 inhibitor palbociclib in living cells.

Another experiment addresses T1, CDK4/Cyclin D (Homo sapiens, UniProt P11802).
T1 construct: Fluorescence changes of CDKACT4 biosensor incubated with MCF‐7 cell extracts; endogenous in cells; host or cells: MCF-7 breast cancer cell extracts
In words: CDKACT4 biosensor fluorescence in MCF‐7 cell extracts. The class given is biochemical. Particulars: incubation with cell extracts prepared with different concentrations of palbociclib, n = 5. The method, then: We initially determined whether the CDKACT4 peptide biosensor that we synthesized was effective at monitoring CDK4 kinase activity in MCF‐7 breast cancer cell extracts.
FIGURE 2 Characterization and spectral stability of CPP30‐Lipo/CDKACT4. (A) Fluorescence changes of CDKACT4 biosensor incubated with MCF‐7 cell extracts (red), CDKACT4 alone (blue), and cell extracts alone (green) during 180 min (n = 5). (B) Relative fluorescence intensity of CDKACT4 biosensor incubated with MCF‐7 cell extracts was monitored over time after treatment with different concentrations of palbociclib (n = 5). (C) Relative fluorescence intensity of MCF‐7 cell extracts‐incubated CDKACT4 at 120 min post‐treated with different concentrations of palbociclib from (b) (n = 5, **p < 0.01). (D) Transmission electron microscopy (TEM) images of CPP30‐Lipo/CDKACT4. Scale bar = 200 nm. (E) Diameter distribution of CPP30‐Lipo/CDKACT4. (F, G) UV–vis absorption spectra (F) and fluorescence emission spectra (G) of water, 5‐TAMRA, CDKACT4, and CPP30‐Lipo/CDKACT4. (H, I) Changes in absorption and fluorescence spectra of CPP30‐Lipo/CDKACT4 during 96 h in water. The samples were stored at room temperature in the dark

In experiment [2] the test system is CDK4 kinase activity in T‐47D cells. In words: Cell microplate fluorescence imaging with CPP30‐Lipo/CDKACT4 in T‐47D. In kind it is cell-based, human. Particulars: different concentrations of palbociclib, n=3. The protocol: as §1
For experiment [3], the system named is pRb (S795) in MCF‐7 cells. Briefly: Western blot of pRb (S795). In kind it is cell-based, human. The method, then: Cells or minced tumor tissues were washed three times with ice‐cold PBS and lysed in RIPA buffer containing protease inhibitor cocktail (Roche Molecular Systems) and phosphatase inhibitor cocktail (Bimake). Tissues were further ground using a glass homogenizer on ice. Protein concentrations were determined with a BCA kit (Solarbio). Subsequent steps were performed as recently described.[36]
For orientation: In western blotting, separated proteins are transferred to a membrane and probed.

Another experiment has as its system MCF‐7 cells. Briefly: Cell cycle analysis (propidium iodide, flow cytometry). The class given is cell-based, human. The settings on record: MCF‐7, increasing concentration of palbociclib, n = 3. The protocol: Cells were harvested and fixed in 70% ethanol at 4 °C overnight. Then, the samples were incubated in a solution of 10 mg/ml RNase and 1 mg/ml propidium iodide (Yeasen Biotech) at 37 °C for 30 min in the dark. The DNA content was determined using flow cytometry (Becton, Dickinson & Co.).
On the technique in general: Flow cytometry measures light scatter and fluorescence of single cells or particles in a stream.

The next experiment deals with MCF‐7 tumor xenografts. In words: In‐vivo fluorescence imaging, MRI and tumor analysis of MCF‐7 tumor xenografts. More on the design: species or system BALB/c nude mice. The settings on record: for change of tumor/muscle (T/M) fluorescence signal ratio: 150 mg/kg daily oral gavage 7 days, pre vs post, average, n = 6. The protocol:
For MCF‐7 tumor model establishment, 6–8‐week old female BALB/c nude mice purchased from Xiamen University Laboratory Animal Center were first subcutaneously implanted with 60‐day release 17β‐estradiol pellets (Innovative Research of America) in the right side of the neck. Three days later, 2 × 10^6 MCF‐7 cells were injected subcutaneously in 1:1 PBS:Matrigel (BioCoat) into the right leg of the nude mice. Tumors were measured by caliper two or three times per week.
When MCF‐7 tumors grew to a volume of 75–100 mm^3, the mice were randomly divided into two groups (n = 6) and given palbociclib (150 mg/kg diluted in […] sodium D‐lactate) or sterile water daily by oral gavage. Magnetic resonance imaging was performed before (0 days) and 7 days after treatment using a 9.4T BioSpec MicroMRI (Bruker), and fluorescence imaging was also performed using the IVIS Lumina II imaging system (PerkinElmer) at the observation time points after intravenous injection with CPP30‐Lipo/CDKACT4 (10 μl/g body weight, containing 30 μM CDKACT4). After imaging, tumor tissue was collected for IHC staining.
Tumors were fixed in 4% paraformaldehyde, embedded in paraffin, and cut into 4‐μm slices. Then, the sections were stained with rabbit monoclonal antibody to Rb (Phospho S795) (1:100 dilution, ab47474; Abcam) or Ki67 (1:500 dilution, 9449; CST). Finally, the sections were observed under an optical microscope.

The IC50 is the concentration needed to halve the response being measured.

T1 sequence (P11802 2-303 limits assumed): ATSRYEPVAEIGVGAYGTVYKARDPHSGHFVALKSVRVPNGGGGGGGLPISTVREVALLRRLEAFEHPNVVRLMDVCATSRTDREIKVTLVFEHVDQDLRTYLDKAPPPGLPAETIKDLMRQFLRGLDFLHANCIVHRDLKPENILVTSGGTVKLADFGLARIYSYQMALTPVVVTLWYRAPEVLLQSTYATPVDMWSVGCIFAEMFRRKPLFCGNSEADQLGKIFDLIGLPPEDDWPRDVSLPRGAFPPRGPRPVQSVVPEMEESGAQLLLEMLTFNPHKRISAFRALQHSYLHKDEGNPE
T1 sequence (P24385 whole entry partner): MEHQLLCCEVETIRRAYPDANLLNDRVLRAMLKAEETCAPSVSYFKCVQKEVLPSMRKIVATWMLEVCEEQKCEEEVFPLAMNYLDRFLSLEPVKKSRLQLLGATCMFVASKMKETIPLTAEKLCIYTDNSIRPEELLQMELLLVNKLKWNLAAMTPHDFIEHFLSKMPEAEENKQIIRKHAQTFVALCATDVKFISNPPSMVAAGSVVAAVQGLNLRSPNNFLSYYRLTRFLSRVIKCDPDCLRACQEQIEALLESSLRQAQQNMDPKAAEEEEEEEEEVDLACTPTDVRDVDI

Take `CCN1CCN(Cc2ccc(Nc3ncc(F)c(-c4cc(F)c5nc(C)n(C(C)C)c5c4)n3)nc2)CC1` [abemaciclib]: the “reduction of fluorescence intensity” value was found to be 14.37% in experiment [1] (MCF‐7, inhibitor 10 nM); 50.13% in experiment [1] (MCF‐7, inhibitor 100 nM); 81.35% in experiment [1] (MCF‐7, inhibitor 1000 nM). The IC50 in the experiment on CDK4 is […].

On to `CC(=O)c1c(C)c2cnc(Nc3ccc(N4CCNCC4)cn3)nc2n(C2CCCC2)c1=O` [palbociclib], for which the “fluorescence of the CDKACT4 peptide biosensor” value on CDK4/Cyclin D is on record as “decreased in a dose‐dependent manner”. Moreover, in experiment [1] (MCF‐7, confocal/fluorescence microscopy after incubation with probe), the “fluorescence intensity under a microscope” value is “significant dose‐dependent reduction”. Further, the “reduction of fluorescence intensity” value stood at 3.17% in experiment [1] (MCF‐7, inhibitor 10 nM); 44.70% in experiment [1] (MCF‐7, inhibitor 100 nM); 60.67% in experiment [1] (MCF‐7, inhibitor 1000 nM). Besides, in experiment [2], the “fluorescence intensity of CPP30‐Lipo/CDKACT4” value is “decreased with the increasing dose”. For the same compound, in experiment [3], the “pRb (S795) protein level” value was “dose‐dependent decrease”. In addition, the “cells arrested in the G1 phase” value in the experiment on MCF‐7 cells was “up to 86.39%”. The “change of tumor/muscle (T/M) fluorescence signal ratio” value with MCF‐7 tumor xenografts (12 h after caudal vein injection of probe) is on record as “–18.86%”; with MCF‐7 tumor xenografts (24 h after caudal vein injection of probe) it was “–18.69%”; with MCF‐7 tumor xenografts (48 h after caudal vein injection of probe) it was “–18.49%”. Also, in the experiment with MCF‐7 tumor xenografts (150 mg/kg daily, day 0 vs day 7, n = 6), the “longest diameter of the tumor by MRI” value is listed as “no significant change”. In the experiment with MCF‐7 tumor xenografts (after 14 days of treatment, n = 4), the tumor growth entry was “significantly inhibited”. Also, in the experiment on MCF‐7 tumor xenografts (baseline vs day 7, immunohistochemical staining pRb (S795)), the “percentage of cells positive for pRb in tumors” value is given as “clear reductions”. Also, the “tumor volume versus control group” value with MCF‐7 tumor xenografts (during the 7 days of treatment, caliper) is given as “no significant difference”. In the experiment with MCF‐7 tumor xenografts (palbociclib 7 days, 48 h post‐injection of probe, n = 3, p < 0.05), the “ex vivo fluorescence intensity of tumors versus control group” value was “significantly lower”. For the same compound, the “Ki‐67 staining in tumors” value in the experiment on MCF‐7 tumor xenografts (palbociclib 7 days, immunohistochemical staining) is on record as “substantially reduced”.
